Data published in ChEMBL document CHEMBL1130402, “Effect of stereochemistry on the clearance mechanism of 111In(III)-labeled D- or L-benzyldiethylenetriaminepentaacetic acid” (J Med Chem, 1997).

Columns and labels:
[1] = organism: Rattus norvegicus; assay: Kidney uptake in normal Wistar rats at 15 min; type: ADME, organism-based; conditions: in vivo, 0.25 h
[2] = organism: Rattus norvegicus; assay: Kidney uptake in normal Wistar rats at 30 min; type: ADME, organism-based; conditions: in vivo, 0.5 h
[3] = organism: Rattus norvegicus; assay: Kidney uptake in normal Wistar rats at 5 min; type: ADME, organism-based; conditions: in vivo
[4] = organism: Rattus norvegicus; assay: Kidney uptake in normal Wistar rats at 60 min; type: ADME, organism-based; conditions: in vivo, 1 h
[5] = organism: Rattus norvegicus; assay: Ratio of biodistribution in kidney and blood in normal Wistar rats at 15 min after injecting the compound.; type: ADME, organism-based; conditions: in vivo, 0.25 h
[6] = organism: Rattus norvegicus; assay: Ratio of biodistribution in kidney and blood in normal Wistar rats at 30 min after injecting the compound; type: ADME, organism-based; conditions: in vivo, 0.5 h
[7] = organism: Rattus norvegicus; assay: Ratio of biodistribution in kidney and blood in normal Wistar rats at 5 min after injecting the compound.; type: ADME, organism-based; conditions: in vivo
[8] = organism: Rattus norvegicus; assay: Ratio of biodistribution in kidney and blood in normal Wistar rats at 60 min after injecting the compound; type: ADME, organism-based; conditions: in vivo, 1 h
[9] = organism: Rattus norvegicus; assay: Ratio of biodistribution in liver and blood in normal Wistar rats at 15 min. after injecting the compound; type: ADME, organism-based; conditions: in vivo, 0.25 h
[10] = organism: Rattus norvegicus; assay: Ratio of biodistribution in liver and blood in normal Wistar rats at 30 min. after injecting the compound; type: ADME, organism-based; conditions: in vivo, 0.5 h
[11] = organism: Rattus norvegicus; assay: Ratio of biodistribution in liver and blood in normal Wistar rats at 5 min. after injecting the compound; type: ADME, organism-based; conditions: in vivo
[12] = organism: Rattus norvegicus; assay: Ratio of biodistribution in liver and blood in normal Wistar rats at 60 min. after injecting the compound; type: ADME, organism-based; conditions: in vivo, 1 h
[13] = organism: Rattus norvegicus; assay: The biodistribution in blood in normal Wistar rats at 15 min; type: ADME, organism-based; conditions: in vivo, 0.25 h
[14] = organism: Rattus norvegicus; assay: The biodistribution in blood in normal Wistar rats at 30 min; type: ADME, organism-based; conditions: in vivo, 0.5 h
[15] = organism: Rattus norvegicus; assay: The biodistribution in blood in normal Wistar rats at 5 min; type: ADME, organism-based; conditions: in vivo
[16] = organism: Rattus norvegicus; assay: The biodistribution in blood in normal Wistar rats at 60 min; type: ADME, organism-based; conditions: in vivo, 1 h
[17] = organism: Rattus norvegicus; assay: The biodistribution in bone in normal Wistar rats at 15 min; type: ADME, organism-based, Bone element; conditions: in vivo, 0.25 h
[18] = organism: Rattus norvegicus; assay: The biodistribution in bone in normal Wistar rats at 30 min; type: ADME, organism-based, Bone element; conditions: in vivo, 0.5 h
[19] = organism: Rattus norvegicus; assay: The biodistribution in bone in normal Wistar rats at 5 min; type: ADME, organism-based, Bone element; conditions: in vivo
[20] = organism: Rattus norvegicus; assay: The biodistribution in bone in normal Wistar rats at 60 min; type: ADME, organism-based, Bone element; conditions: in vivo, 1 h
[21] = organism: Rattus norvegicus; assay: The biodistribution in liver in normal Wistar rats at 15 min; type: ADME, organism-based; conditions: in vivo, 0.25 h
[22] = organism: Rattus norvegicus; assay: The biodistribution in liver in normal Wistar rats at 5 min; type: ADME, organism-based; conditions: in vivo
[23] = organism: Rattus norvegicus; assay: The biodistribution in liver in normal Wistar rats at 60 min; type: ADME, organism-based; conditions: in vivo, 1 h
[24] = Compound was tested for % clearance through the faeces in Wistar rats; type: ADME, organism-based; conditions: rat, read-out: Feces
[25] = Compound was tested for % clearance through the faeces in jaundice Wistar rats; type: ADME, organism-based; conditions: rat, read-out: Feces
[26] = Compound was tested for % clearance through the urine in jaundiced (TR-) Wistar rats; type: ADME, organism-based; conditions: rat
[27] = Compound was tested for % clearance through the urine in normal rat; type: ADME, organism-based
[28] = organism: Rattus norvegicus; assay: The biodistribution in liver in normal Wistar rats at 30 min; type: ADME, organism-based; conditions: in vivo, 0.5 h
[29] = organism: Rattus norvegicus; assay: Ratio of biodistribution in kidney and blood in normal Wistar rats at 5 min after injecting the compound; type: ADME, organism-based; conditions: in vivo
[30] = Compound was tested for % clearance through the faeces in jaundiced (TR-) Wistar rats; type: ADME, organism-based; conditions: rat, read-out: Feces
[31] = Compound was tested for % clearance through the faeces in normal Wistar rats; type: ADME, organism-based; conditions: rat, read-out: Feces
[32] = organism: Rattus norvegicus; assay: Ratio of biodistribution in kidney and blood in normal Wistar rats at 15 min after injecting the compound; type: ADME, organism-based; conditions: in vivo, 0.25 h

SMILES | ID/organ [1] [%] | ID/organ [2] [%] | ID/organ [3] [%] | ID/organ [4] [%] | ID/organ [6] | ID/organ [8] | ID/organ [9] | ID/organ [10] | ID/organ [11] | ID/organ [12] | ID/organ [13] [%] | ID/organ [14] [%] | ID/organ [15] [%] | ID/organ [16] [%] | ID/organ [17] [%] | ID/organ [18] [%] | ID/organ [19] [%] | ID/organ [20] [%] | ID/organ [21] [%] | ID/organ [22] [%] | other results
O=C(O)CN(CCN(CCN(CC(=O)O)CC(=O)O)[C@H](Cc1ccccc1)C(=O)O)CC(=O)O | 1.63 | 0.92 | 3.45 | 0.57 | 0.46 | 0.82 | 1.69 | 1.55 | 1.46 | 1.6 | 4.67 | 2.03 | 10.7 | 0.71 | 3.81 | 2.31 | 3.28 | 2.4 | 7.63 | 15.6 | ID/organ [5]: 0.36; ID/organ [7]: 0.33; ID/organ [23]: 1.1%; dose excreted [24]: 42.8%; dose excreted [25]: 10.6%; dose excreted [26]: 80.4%; dose excreted [27]: 51.9%; ID/organ [28]: 3.15%
O=C(O)CN(CCN(CCN(CC(=O)O)CC(=O)O)[C@@H](Cc1ccccc1)C(=O)O)CC(=O)O | 3.04 | 1.96 | 4.74 | 1.1 | 0.74 | 1.3 | 1.1 | 0.9 | 1.04 | 0.99 | 6.36 | 2.66 | 12.7 | 0.86 | 3.76 | 2.17 | 4.59 | 2.43 | 6.84 | 13.2 | ID/organ [29]: 0.37; ID/organ [23]: 0.82%; dose excreted [30]: 3.3%; dose excreted [31]: 29.2%; dose excreted [26]: 85%; dose excreted [27]: 62%; ID/organ [32]: 0.48; ID/organ [28]: 2.37%
